From EP2272817A1, “PAI-1 INHIBITOR” (Institute of Medicinal Molecular Design, Inc., priority 2008, dated 2009) come the findings set out here.

This assay has as its target recombinant human PAI-1 (Homo sapiens, UniProt P05121). The assay can be described thus: biochemical. Conditions: read-out: Inhibition Rate of PAI-1 Activity (%).
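Note: PAI-1 preincubated with compound, then two-chain tPA added, residual tPA activity read with fluorogenic Pyr-Gly-Arg-MCA substrate after 30 min at room temperature.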

Sequence of recombinant human PAI-1 (P05121 24-402): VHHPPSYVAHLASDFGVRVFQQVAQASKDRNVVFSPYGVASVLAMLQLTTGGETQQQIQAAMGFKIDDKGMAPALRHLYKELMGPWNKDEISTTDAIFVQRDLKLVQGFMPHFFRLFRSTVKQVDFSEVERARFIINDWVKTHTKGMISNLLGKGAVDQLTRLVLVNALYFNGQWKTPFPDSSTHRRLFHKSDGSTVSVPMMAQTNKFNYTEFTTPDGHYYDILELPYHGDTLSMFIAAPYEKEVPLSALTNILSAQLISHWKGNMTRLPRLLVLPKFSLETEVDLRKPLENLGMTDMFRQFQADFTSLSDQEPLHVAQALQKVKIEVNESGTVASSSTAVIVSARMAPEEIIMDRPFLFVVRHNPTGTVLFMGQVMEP

Usually inhibition stands for the drop in the measured response relative to a control, in per cent. As to `CCCCc1ccc(CN(C(=O)C(=O)O)c2ccc(-c3ccc(OC(F)(F)F)cc3)cc2)cc1` [Compound 167], the inhibition at 5 µM was 37%, the inhibition at 10 µM turned out to be 75% and the inhibition at 25 µM was 87%.

With `CC(C)(C)c1ccc(CN(C(=O)C(=O)O)c2ccc(C(F)(F)F)cc2-c2ccc(OC(F)(F)F)cc2)cc1` [Compound 169], the inhibition at 5 µM was found to be 59%, the inhibition at 10 µM is 91% and the inhibition at 25 µM came out at 84%.

For `CC(C)(C)c1ccc(N(C(=O)C(=O)O)c2cccc(Oc3ccc(OC(F)(F)F)cc3)c2)cc1` [Compound 170], the inhibition at 5 µM was found to be 38%, the inhibition at 10 µM turned out to be 73% and the inhibition at 25 µM turned out to be 94%.

With `O=C(O)C(=O)N(Cc1c(Cl)cccc1Cl)c1ccc(-c2ccc(OC(F)(F)F)cc2)cc1` [Compound 171], the inhibition at 5 µM came out at 22%, the inhibition at 10 µM was 44% and the inhibition at 25 µM came out at 81%.

Turning to `CC(C)(C)c1ccc(CN(C(=O)C(=O)O)c2c(Cl)cc(-c3ccc(OC(F)(F)F)cc3)cc2Cl)cc1` [Compound 173], the inhibition at 5 µM was 63%, the inhibition at 10 µM is 95% and the inhibition at 25 µM was 90%.

In the case of `CC(C)(C)c1ccc(CN(C(=O)C(=O)O)c2cc(Oc3ccc(OC(F)(F)F)cc3)cc(C(F)(F)F)c2)cc1` [Compound 175], the inhibition at 5 µM was 66%, the inhibition at 10 µM was 94% and the inhibition at 25 µM came to 87%.

As to `Cc1c(-c2ccc(OC(F)(F)F)cc2)cccc1N(Cc1ccc(C(C)(C)C)cc1)C(=O)C(=O)O` [Compound 177], the inhibition at 5 µM was 43%, the inhibition at 10 µM worked out at 83% and the inhibition at 25 µM was determined as 91%.

As for `Cc1cc(-c2ccc(OC(F)(F)F)cc2)cc(N(Cc2ccc(C(C)(C)C)cc2)C(=O)C(=O)O)c1` [Compound 178], the inhibition at 5 µM amounted to 56%, the inhibition at 10 µM was determined as 88% and the inhibition at 25 µM worked out at 88%.

Turning to `O=C(O)C(=O)N(Cc1ccccc1)c1c(Cl)cc(-c2ccc(OC(F)(F)F)cc2)cc1Cl` [Compound 180], the inhibition at 5 µM came to 19%, the inhibition at 10 µM amounted to 36% and the inhibition at 25 µM came out at 71%.

Consider `O=C(O)C(=O)N(Cc1ccc(O)cc1)c1ccc(-c2ccc(OC(F)(F)F)cc2)cc1` [Compound 181], for which the inhibition at 5 µM worked out at 10%, the inhibition at 10 µM worked out at 11% and the inhibition at 25 µM amounted to 31%.

Take `COc1ccc(-c2ccc(OC(F)(F)F)cc2)cc1N(Cc1ccc(C(C)(C)C)cc1)C(=O)C(=O)O` [Compound 182]: the inhibition at 5 µM was determined as 56%, the inhibition at 10 µM was found to be 85% and the inhibition at 25 µM worked out at 89%.

With `O=C(O)C(=O)N(Cc1ccc(OC(F)(F)F)cc1)c1ccc(-c2ccccc2)cc1` [Compound 183], the inhibition at 10 µM was 11% and the inhibition at 25 µM is 29%.

Regarding `Cc1cc(N(Cc2ccc(C(C)(C)C)cc2)C(=O)C(=O)O)ccc1-c1ccc(OC(F)(F)F)cc1` [Compound 184], the inhibition at 5 µM is 59%, the inhibition at 10 µM is 86% and the inhibition at 25 µM was determined as 85%.

Take `Cc1ccc(N(Cc2ccc(C(C)(C)C)cc2)C(=O)C(=O)O)cc1Oc1ccc(OC(F)(F)F)cc1` [Compound 187]: the inhibition at 5 µM worked out at 75%, the inhibition at 10 µM stood at 92% and the inhibition at 25 µM is 88%.

Consider `CC(C)(C)c1ccc(CN(C(=O)C(=O)O)c2ccc(Cl)cc2Oc2ccc(OC(F)(F)F)cc2)cc1` [Compound 191], for which the inhibition at 5 µM is 74%, the inhibition at 10 µM was 92% and the inhibition at 25 µM was determined as 87%.

For `CCCCCOc1ccc(-c2ccc(OC(F)(F)F)cc2)cc1N(Cc1ccccc1)C(=O)C(=O)O` [Compound 195], the inhibition at 5 µM turned out to be 77%, the inhibition at 10 µM is 94% and the inhibition at 25 µM stood at 93%.

On to `CC(C)(C)c1ccc(CN(C(=O)C(=O)O)c2ccc(-c3ccc(OC(F)(F)F)cc3)c(CCC(=O)O)c2)cc1` [Compound 196], for which the inhibition at 5 µM is 18%, the inhibition at 10 µM is 35% and the inhibition at 25 µM is 64%.

As to `CC(C)(C)c1ccc(CN(C(=O)C(=O)O)c2ccc(-c3cccc(OC(F)(F)F)c3)cc2)cc1` [Compound 200], the inhibition at 5 µM stood at 64%, the inhibition at 10 µM worked out at 89% and the inhibition at 25 µM is 92%.

Regarding `CC(C)(C)c1ccc(CN(C(=O)C(=O)O)c2ccc(-c3ccccc3OC(F)(F)F)cc2)cc1` [Compound 201], the inhibition at 5 µM worked out at 64%, the inhibition at 10 µM came to 89% and the inhibition at 25 µM is 82%.

With `CC(C)(C)c1ccc(-c2ccc(N(Cc3ccccc3OC(F)(F)F)C(=O)C(=O)O)cc2)cc1` [Compound 202], the inhibition at 5 µM was 70%, the inhibition at 10 µM came out at 94% and the inhibition at 25 µM is 98%.

As for `CC(C)(C)c1ccc(-c2ccc(N(Cc3cccc(OC(F)(F)F)c3)C(=O)C(=O)O)cc2)cc1` [Compound 203], the inhibition at 5 µM worked out at 69%, the inhibition at 10 µM came out at 91% and the inhibition at 25 µM is 97%.

For the molecule `CC(C)(C)c1ccc(-c2ccc(N(Cc3ccc(Cl)cc3)C(=O)C(=O)O)cc2)cc1` [Compound 204], the inhibition at 5 µM is 58%, the inhibition at 10 µM worked out at 85% and the inhibition at 25 µM is above 99%.

For `CC(C)(C)c1ccc(-c2ccc(N(Cc3ccc(C(F)(F)F)cc3)C(=O)C(=O)O)cc2)cc1` [Compound 205], the inhibition at 5 µM is 50%, the inhibition at 10 µM was determined as 80% and the inhibition at 25 µM worked out at 98%.

For the molecule `CCC(CC)Oc1ccc(N(Cc2ccc(C(C)(C)C)cc2)C(=O)C(=O)O)c(-c2ccc(OC(F)(F)F)cc2)c1` [Compound 207], the inhibition at 5 µM was 79% and the inhibition at 10 µM worked out at 90%.

`CC(C)Oc1ccc(N(Cc2ccc(C(C)(C)C)cc2)C(=O)C(=O)O)c(-c2ccc(OC(F)(F)F)cc2)c1` [Compound 209]: the inhibition at 5 µM was determined as 81%, the inhibition at 10 µM amounted to 98% and the inhibition at 25 µM worked out at 94%.

`CCCOc1ccc(N(Cc2ccccc2)C(=O)C(=O)O)cc1-c1ccc(OC(F)(F)F)cc1` [Compound 210]: the inhibition at 5 µM was determined as 39%, the inhibition at 10 µM was found to be 70% and the inhibition at 25 µM worked out at 94%.

As to `CC(C)(C)c1ccc(CN(C(=O)C(=O)O)c2ccc(N3CCOCC3)c(-c3ccc(OC(F)(F)F)cc3)c2)cc1` [Compound 216], the inhibition at 5 µM is 75%, the inhibition at 10 µM was found to be 88% and the inhibition at 25 µM is 84%.

Take `CC(C)(C)c1ccc(CN(C(=O)C(=O)O)c2ccc(N3CCCCC3)c(-c3ccc(OC(F)(F)F)cc3)c2)cc1` [Compound 217]: the inhibition at 5 µM stood at 86% and the inhibition at 10 µM came to 84%.

`CC(C)(C)Oc1ccc(N(Cc2ccc(C(C)(C)C)cc2)C(=O)C(=O)O)cc1-c1ccc(OC(F)(F)F)cc1` [Compound 218]: the inhibition at 5 µM came out at 83% and the inhibition at 10 µM stood at 78%.

Take `CC(C)(C)c1ccc(CN(C(=O)C(=O)O)c2ccc(N3CCCCC3=O)c(-c3ccc(OC(F)(F)F)cc3)c2)cc1` [Compound 219]: the inhibition at 5 µM is 33%, the inhibition at 10 µM is 58% and the inhibition at 25 µM stood at 86%.
